# Measurements as given in patent publication US6719969B1, “Treatment of liver disease and injury with CXC chemokines” (The Regents of The University of Michigan, priority 1999, dated 2004).
# “And” between values parts separate entries of the source, which are not always exact repeats. Identical values can stand only once. Like-named read-outs stand apart in the source and are kept apart here.
# T1: murine CXCR2 (Mus musculus, UniProt P35343)
# T1 sequence (P35343 1-359): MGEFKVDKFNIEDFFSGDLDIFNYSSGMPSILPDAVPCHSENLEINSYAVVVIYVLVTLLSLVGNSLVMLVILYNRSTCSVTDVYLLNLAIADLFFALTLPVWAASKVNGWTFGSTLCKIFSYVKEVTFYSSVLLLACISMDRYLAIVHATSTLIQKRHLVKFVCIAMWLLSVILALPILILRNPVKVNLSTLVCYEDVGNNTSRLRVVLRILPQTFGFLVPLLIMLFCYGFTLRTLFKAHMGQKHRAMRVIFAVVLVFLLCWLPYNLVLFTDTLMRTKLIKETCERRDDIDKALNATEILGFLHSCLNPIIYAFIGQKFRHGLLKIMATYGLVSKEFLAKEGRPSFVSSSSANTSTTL
# B1: PF-4: CXC chemokine lacking the ELR sequence (protein, UniProt P02776 32-101, looked up)
# Platelet factor 4: EAEEDGDLQCLCVKTTSQVRPRHITSLEVIKAGPHCPTAQLIATLKNGRKICLDLQAPLYKKIIKKLLES
# B2: MIP-2: ELR-containing CXC chemokine, macrophage inflammatory protein-2; recombinant murine protein (protein, UniProt P10889 28-100, looked up)
# C-X-C motif chemokine 2: AVVASELRCQCLKTLPRVDFKNIQSLSVTPPGPHCAQTEVIATLKGGQKVCLDPEAPLVQKIIQKILNKGKAN
# B3: KC: murine ELR-CXC chemokine with neutrophil chemotactic properties (protein, UniProt P12850 25-96, looked up)
# Growth-regulated alpha protein: APIANELRCQCLQTMAGIHLKNIQSLKVLPSGPHCTQTEVIATLKNGREACLDPEAPLVQKIVQKMLKGVPK
# What was measured:
# [1] = system: normal murine liver cells (ATCC CRL-1638; NmuLi); assay: Cultured liver cell proliferation after acetaminophen, [3H]thymidine incorporation; type: cell-based, mouse; conditions: for Proliferation of liver cells exposed to acetaminophen for 24 h: 2.5 mg/ml acetaminophen; for Proliferation of liver cells exposed to PBS: NAC 1 mM, cytokines 1 ng/ml, no acetaminophen
# Description: The effects of chemokines, NAC and HGF on hepatocyte proliferation after a 24 h acetaminophen challenge were examined using normal murine liver cells obtained from American Type Culture Collection (ATCC CRL-1638; NmuLi). Hepatocytes were plated at a density of 1.0×10^5 cells/well in 6-well tissue culture plates, and were deprived of fetal bovine serum supplementation for 36 h prior to an study. Fasted hepatocytes were subsequently exposed to 2.5 mg/ml of acetaminophen and were left untreated or treated with one of NAC, MIP-2, ENA-78, IL-8, IP-10 or HGF. NAC at 1 mM or individual cytokines at 1 ng/ml were added either immediately or 10 h after the addition of acetaminophen.
# In additional in vitro studies, normal serum or anti-CXCR2 antibody was also included in cultures of treated or untreated hepatocytes exposed to PBS or acetaminophen. Ten μCi of [^3H]thymidine was added to each well for the final 4 h of culture, and 24 h after the addition of acetaminophen suspensions of hepatocytes were prepared via cell lysis with 0.5% (v/v) Triton-X100. [^3H]thymidine incorporation was assessed by liquid scintillation counting on a Beckman counter (Beckman Instruments, Fullerton, Calif.).
# [2] = system: CD1 mice challenged with 400 mg/kg acetaminophen; assay: Acetaminophen-induced hepatic injury, mice fasted 12 h, treatment immediately or 10 h after challenge; type: in vivo, mouse; conditions: for Liver injury (histology): treatment 10 h after acetaminophen, liver at 48 h; for Significant reduction of serum AST levels / Reduction of serum AST levels: AST at 48 h; for Reduction of serum AST levels: NAC 100 ug, proteins 2 ug i.v.
# Description: Female CD1 mice (6-8 wk of age) were purchased from Charles River Laboratories (Portage, Mich.) and maintained under specific pathogen-free conditions with free access to water and food prior to each study. Fresh suspensions of acetaminophen (Sigma Chemical Company, St. Louis, Mo.) were made daily by dissolving the compound in phosphate buffered saline (PBS) warmed to 40° C. In all studies, mice were allowed free access to water alone prior to an i.p. injection of 400 mg/kg acetaminophen (Manatou et al., 1996; incorporated herein by reference).
# Protocol 2: In the second set of studies, mice were fasted for 12 h and received one of NAC, murine MIP-2, the human proteins ENA-78, IL-8, HGF or IP-10 either immediately or 10 h after acetaminophen challenge. […] Mice were injected i.v. with 100 μg of NAC or 2 μg of recombinant protein (ENA-78, IL-8, HGF or IP-10) dissolved in 0.5 ml of normal saline. All mice were subsequently sacrificed 48 h after acetaminophen challenge and serum and liver samples were removed.
# Acute hepatocellular injury results in elevated levels of aspartate aminotransferase (AST). Serum levels of AST were determined 48 h after mice were challenged with acetaminophen by Clinical Pathology at the University of Michigan Medical School (Ann Arbor, Mich.) using standardized techniques.
# For histological assessment of hepatic injury, liver tissues were fixed in 4% paraformaldehyde for 24 h prior to routine histological processing. A pathologist assessed hematoxylin and eosin stained slides from acetaminophen-challenged mice in a blinded manner. Separate scoring systems were devised to indicate the area of liver necrosis and hemorrhage, and the extent of hepatic inflammation. Detailed histological grading of hepatic injury including area of liver necrosis and hemorrhage was determined at 48 h after acetaminophen challenge. Hepatic inflammation was graded as absent, slight, moderate, or prominent.
# The histological appearances of the livers from normal mice and mice that were challenged with acetaminophen and received saline or 2 μg of murine MIP-2, human ENA-78, human IL-8, human IP-10, human HGF or 100 μg of NAC were also analyzed. Mice were fasted for 12 h prior to i.p. injection with 400 mg/kg of acetaminophen, and then allowed free access to food. In these studies, saline, chemokines or NAC were given by i.v. injection 10 h after acetaminophen challenge, and liver was removed from each mouse for histological examination at the 48 h time point after acetaminophen.
# [3] = system: CD1 mice challenged with 400 mg/kg acetaminophen; assay: Acetaminophen challenge in mice fasted 24 h, MIP-2 or NAC treatment; type: in vivo, mouse
# Description: Protocol 3: In the next set of studies, mice were fasted for 24 h and received MIP-2 (2 μg) or NAC (100 μg) via an i.v. injection either immediately or 10 h after acetaminophen challenge, and liver and serum samples were removed from surviving mice 48 h after acetaminophen challenge. Liver and serum samples from the experimental groups and from mice challenged with an i.p. injection of PBS and treated i.v. with normal saline were processed as described below.
# The histological appearances of the livers from mice that were challenged with acetaminophen and received 100 μg of NAC or 2 μg of murine MIP-2 by i.v. injection, either immediately after or 10 h later, were also analyzed.
# primary rat hepatocytes [4] = system: primary rat hepatocytes
# Description: (§1) Adult male pathogen-free Sprague Dawley rats (Charles River, Portage, Mich.) weighing 300-350 gms. were used for isolation of hepatocytes by collagenase perfusion (Berry and Friend, 1969; Alpini et al., 1994; each incorporated herein by reference). Perfusion was performed via the portal vein after anesthesia was induced with intramuscular ketamine (100 mg/kg) and maintained with inhalation of methoxyflurane. […] The portal vein was then exposed and cannulated with a 16 gauge angiocatheter.
# (§2) The liver was perfused with Hank's solution (calcium and magnesium free with 10 mM Hepes and 10^5 U/L of penicillin/streptomycin, pH 7.4 [Biowhittaker, Walkersville, Md.]) at 37° C. at a rate of 10 ml/min to flush the liver of intravascular blood. The liver was next perfused with a collagenase solution (0.5 mg/ml collagenase B [Boehringer Mannheim, Indianapolis, Ind.] in Dulbecco's Modified Eagle's Media/F12 [DMEM/F12 {Biowhittaker, Walkersville, Md.}] with 10^5 U/L penicillin/streptomycin) at 37° C. at a rate of 10 ml/min until there was evidence of tissue fracture beneath the liver capsule.
# (§3) The liver was then gently removed from the animal, placed into a sterile petri dish containing additional collagenase solution, the liver capsule removed, and the tissue gently agitated to disperse the cells. […] Hepatocyte viability was generally 85-95% as determined by trypan blue exclusion. […]
# [5] = system: CD-1 mice challenged with 400 mg/kg acetaminophen
# neutrophils = conditions: ELR motif introduced into PF-4; cited from earlier work
# primary rat hepatocytes [6] = assay: Primary rat hepatocyte proliferation in vitro, 3H-thymidine incorporation; conditions: 0.001-100 ng/ml, 24 h of incubation, vs media alone
# Description: as §1, §2, §3
# murine CXCR2 = molecular target: T1, murine CXCR2; conditions: Lee et al., 1995; cited from earlier work
# [7] = system: CD-1 mice challenged with 400 mg/kg acetaminophen; assay: Delayed MIP-2 therapy in acetaminophen-challenged mice: histology, BrdU, nuclear Western blot; type: in vivo, mouse
# [8] = treatment delayed 10 h after acetaminophen
# [9] = treatment immediately after acetaminophen
# [10] = 24 h fast, treatment delayed 10 h
# [11] = CD1 mice fasted 24 h, 400 mg/kg acetaminophen, 400 mg/kg
molecule,measurement,setting,value
"CC(=O)N[C@@H](CS)C(=O)O [NAC, N-acetyl-cysteine]",Proliferation of liver cells exposed to acetaminophen for 24 h,"[1]; treatment added 10 h later, vs PBS cultures",significantly reduced liver cell proliferation
same,Proliferation of liver cells exposed to acetaminophen for 24 h,[1]; treatment added immediately,maintained the proliferation
same,Proliferation of liver cells exposed to PBS,[1],did not alter the proliferation
same,Liver injury (histology),[2],Neither HGF nor 100 μg of NAC were effective
same,Significant reduction of serum AST levels,[2]; [8],no longer able to significantly reduced serum AST levels
same,Reduction of serum AST levels,[2]; [9],approximately 90%
same,Liver histology,[3]; [10],did not attenuate hepatic injury
same,Liver histology,"[3]; 24 h fast, treatment immediately after acetaminophen",effective
same,"Serum AST, NAC vs MIP-2","[3]; 24 h fast, treatment immediately after acetaminophen, 48 h",significantly lower levels of serum AST
same,"Percent survival, treatment Immediately After Acetaminophen","[3]; CD1 mice fasted 24 h, 400 mg/kg acetaminophen, monitored 48 h, 400 mg/kg",90%
same,"Percent survival, treatment 10 h post Acetaminophen",[3]; [11],25% and 20%
"ENA-78: ELR-containing CXC chemokine, epithelial neutrophil activating protein-78; human recombinant protein",Proliferation of liver cells exposed to acetaminophen for 24 h,[1]; treatment added immediately,prevented the drop in liver cell proliferation
same,Proliferation of liver cells exposed to PBS,[1],did not change the proliferation
same,Liver injury (histology),[2],marked attenuation of liver injury
same,Significant reduction of serum AST levels,[2]; [8],significantly reduced serum AST levels
same,Reduction of serum AST levels,[2]; [9],approximately 50%
"HGF: human hepatocyte growth factor, used as positive control [reference compound]",Proliferation of liver cells exposed to PBS,[1],did not change the proliferation
same,Liver injury (histology),[2],Neither HGF nor 100 μg of NAC were effective
same,Significant reduction of serum AST levels,[2]; [9],not
same,Hepatocyte proliferation (incorporation of 3H-thymidine),primary rat hepatocytes [4],more significant
"IL-8: ELR-containing CXC chemokine, interleukin-8; human recombinant protein",Proliferation of liver cells exposed to PBS,[1],did not change the proliferation
same,Liver injury (histology),[2],marked attenuation of liver injury
same,Significant reduction of serum AST levels,[2]; [8],significantly reduced serum AST levels
same,Reduction of serum AST levels,[2]; [9],approximately 50%
"IP-10: non-ELR CXC chemokine, γ-interferon-inducible protein-10",Lowering of proliferation rate of liver cells exposed to PBS,"[1]; 1 ng/ml, vs control cultures with PBS",40%
same,Proliferation of liver cells exposed to acetaminophen for 24 h,[1]; treatment added immediately,not further reduced
same,Significant reduction of serum AST levels,[2]; [9],not
same,Hepatic injury (histology),"[5]; 1 ug i.v. 10 h after acetaminophen, 2 days after challenge",dramatically decreased hepatic injury
same,Decrease in liver injury (serum ALT),"[5]; 8 hours after administration, vs saline",approximately three-fold
same,Serum MIP-2 levels,[5]; 8 h post treatment,almost three times the levels seen in control animals
same,CXCR2 protein in liver (Western blot),[5]; 26 h and subsequent time points,high level of CXCR2 protein
same,CXCR2 protein on hepatocytes (immunohistochemistry),"[5]; mouse, in vivo",quite strong expression of CXCR2 protein
B1,Increase in neutrophil chemotactic properties,neutrophils,"1,000 fold"
B2,Proliferation of liver cells exposed to acetaminophen for 24 h,[1]; treatment added immediately,prevented the drop in liver cell proliferation
same,Proliferation of liver cells exposed to PBS,[1],did not change the proliferation
same,Liver injury (histology),[2],marked attenuation of liver injury
same,Significant reduction of serum AST levels,[2]; [8],significantly reduced serum AST levels
same,Reduction of serum AST levels,[2]; [9],approximately 50%
same,Hepatocyte proliferation (incorporation of 3H-thymidine),primary rat hepatocytes [6],significant increase in hepatocyte proliferation
same,Affinity for murine CXCR2 relative to KC,murine CXCR2,ten-fold greater affinity
same,Liver histology 2 days after injection,[7]; 1 ug i.v. 10 h after acetaminophen,little evidence of liver injury
same,Nuclear expression of C/EBP-α,[7]; 8 h after treatment,exhibited nuclear expression of the 48- and 42-kDa isoforms of C/EBP-α
same,Nuclear cyclin D1 protein,"[7]; 24 h after treatment, Western blot",markedly greater nuclear levels of cyclin D1 protein
same,"BrdU-labeled hepatocytes, enhancement above control group",[7]; 48 h after treatment,10 fold
same,AST and ALT levels,[7]; IL-6 knockout,dramatic decrease of AST and ALT levels
same,Nuclear expression of 38- and 35-kDa LAP of C/EBP-β,[7]; Western blot of liver nuclear extracts,evident at 4 h after MIP-2 treatment
same,Nuclear expression of STAT-3,[7]; vs PBS,strongly expressed at all times examined
same,IL-6 in serum or liver,[7]; vs controls,never significantly elevated
same,Liver histology,[3]; [10],showed improvements
same,"Serum AST, MIP-2 vs NAC","[3]; 24 h fast, treatment delayed 10 h, 48 h",significantly lower levels of serum AST
same,"Percent survival, treatment 10 h post Acetaminophen",[3]; [11],60%
B3,"Affinity for CXCR2, fold less than MIP-2",murine CXCR2,approximately 10 fold
